Test results as given in paper PMC11679558, “Novel Peptidomimetic Cyclo-{E(I)-E(W)}Na (CP-88) with Hematopoietic Activity Sustained in Invasive and Oral Administration: Experimental and Preclinical Evaluation” (International Journal of Molecular Sciences, 2024).
Values belong to the compound of their own block, whether it stands above or below them. Peptide text beside a SMILES is read from it.

Experiments:
[1] = Pharmacokinetics of Stemokin in mice using 3H-Stemokin; type: in vivo; details: parenteral administration
Method: The additional goal of this study was to estimate Stemokin’s pharmacokinetics using 3H-Stemokin.
The main radioactivity was accumulated in the bone marrow. This exceptional tropism to bone marrow could explain its significant hemostimulating activity (Table 4 and Table 5, line 3 underlying the extraordinary tropism of Stemokin to Bone marrow tissue).
Pharmacokinetics of Stemokin With parenteral administration of the drug, a Cmax in the blood was achieved after 5 min […]. A Cmax was observed 30–40 min after administration in bone marrow, liver, kidneys, and lymph nodes. The drug’s T1/2 is 24 h and is eliminated from the body within 72 h. The pharmacokinetics of Stemokin was studied using ^3H-Stemokin, obtained by thermal activation of gaseous tritium. 3H-Stemokin was administered intramuscularly to BDF1 female mice, and 72 h after a single dose, the levels of ^3H-radioactivity were determined in animal organs and tissues. The main amount of radioactivity, ~80%, was excreted within 24 h after administration of ^3H-Stemokin and was less than 5% of the administered dose (Table 4 and Table 5).

[2] = cited from earlier work
Description: Several cyclopeptides (A1–A5) indicated stimulatory hematopoietic activity sustained in invasive and oral administration.

[3] = Interspecies extrapolation of the toxicological results to humans; details: interspecies extrapolation from the toxicological test results
Method: The toxicological test results conclude that in humans, considering interspecies extrapolation, CP-88 can be practically safe with a single and course administration in doses of up to 100 μg/kg. In the first phase of clinical trials, it is advisable to test the drug for tolerability, starting with a dose of 1 μg/kg. The dose can be increased to 10 μg/kg daily with no adverse reactions detected in the clinical results.

[4] = test system: mice (CBA/C57BL6) F1; experiment: Acute toxicity of CP-88 in mice; type: in vivo; details: male and female mice, intraperitoneally once, 0.2 mL per animal; doses 500, 1000 and 10,000 μg/kg
Method: This study of acute and chronic toxicity of CP-88 was conducted under the requirements of regulatory documents that regulate this study and are part of a complex of preclinical studies on acute and chronic toxicity that are required for the registration of drugs. Fifty-six male and fifty-six female mice, line (CBA/C57BL6) F1, were used for this study.
To determine acute toxicity, peptide was administered to male and female mice (CBA/C57BL6) F1 (56 male and 56 female mice). The animals were obtained from the Scientific and Production Enterprise “Stolbovaya” Laboratory Animal Nursery, Moscow Region, at the age of 4 weeks. Upon receipt, an external examination of the animal’s condition was conducted.
The drug was administered in the form of aqueous solutions intraperitoneally in doses of 500, 1000, and 10,000 μg/kg in a volume of 0.2 mL per mouse, which exceeded the effective doses of the drug by 50 to 1000 times. Animals of the same batch, injected with distilled water in a volume of 0.2 mL per animal (control substance), were used as a biological control.

T1/2 [1]: 24 h
time to Cmax in bone marrow, liver, kidneys, and lymph nodes [1]: 30 to 40 min
time within which the drug is eliminated from the body [1]: ≤ 72 h
Compound: CC[C@H](C)[C@H](N)C(=O)N[C@@H](CCC(=O)O)C(=O)N[C@@H](Cc1c[nH]c2ccccc12)C(=O)O [Stemokin, Ile-Glu-Trp] (H-Ile-Glu-Trp-OH)

Compound: cyclo[L-Lys(N-acetyl-Glucosamine-N-acetyl-muramyl)-L-Glu(L-Trp)] [E1]
adjuvant activity (in words) [2]: adjuvant activity

Compound: CC[C@H](C)[C@H](NC(=O)CC[C@@H]1NC(=O)[C@H](CCC(=O)N[C@@H](Cc2c[nH]c3ccccc23)C(=O)O)NC1=O)C(=O)O [CP-88, Cyclo-[Glu(Ile)-Glu(Trp)]]
practically safe dose in humans with a single and course administration [3]: up to 100 μg/kg
acute toxicity: doses with no toxic effects [4]: up to 10,000 µg/kg

Compound: c[DPheDGlu(DTrp)] [B6]
immuno and hemosuppressive activity (in words) [2]: immuno and hemosuppressive activity

Compound: c[DAlaDGlu(DTrp)] [B1]
immuno and hemosuppressive activity (in words) [2]: immuno and hemosuppressive activity

Compound: cyclo[Lys(Palmitoyl)-Glu(D-Trp)] [E3]
adjuvant activity (in words) [2]: adjuvant activity

Compound: c[DTyrDGlu(DTrp)] [B9]
immuno and hemosuppressive activity (in words) [2]: immuno and hemosuppressive activity

Compound: c[DLysDGlu(DTrp)] [B5]
immuno and hemosuppressive activity (in words) [2]: immuno and hemosuppressive activity
